The subject of data set [1] is MCF‐7, Hep3B, and U87 cells. The data set is described as follows: Cytotoxicity assays. The format is cell-based.
A short description of data set [2]: Optical properties, photostability and pH stability of NFa and 4-HNFa. The format is physicochemical. Details: maximum UV absorption: unit not given here.
The nature of data set [3]: Metabolic stability assay of 4-HNFa in phase II metabolizing system. The format is in vitro ADME. Particulars: human, pH 7.4; HLMs in the presence of UDPGA; read-out: metabolic half-life t1/2.
For data set [4], the target named is T1, CYP3A4 (Homo sapiens, UniProt P08684). Further details: expressed in transfected cells; host or cells: CHO-3A4 stably transfected cell line. The settings on record: cited from earlier work; for cell-membrane permeability (Shortages) / Specificity: previously reported fluorescent substrates; for cell-membrane permeability (Shortages): 9 of the supplement; for Specificity: ref 7-10 of the supplement.
T1 sequence (P08684 whole entry): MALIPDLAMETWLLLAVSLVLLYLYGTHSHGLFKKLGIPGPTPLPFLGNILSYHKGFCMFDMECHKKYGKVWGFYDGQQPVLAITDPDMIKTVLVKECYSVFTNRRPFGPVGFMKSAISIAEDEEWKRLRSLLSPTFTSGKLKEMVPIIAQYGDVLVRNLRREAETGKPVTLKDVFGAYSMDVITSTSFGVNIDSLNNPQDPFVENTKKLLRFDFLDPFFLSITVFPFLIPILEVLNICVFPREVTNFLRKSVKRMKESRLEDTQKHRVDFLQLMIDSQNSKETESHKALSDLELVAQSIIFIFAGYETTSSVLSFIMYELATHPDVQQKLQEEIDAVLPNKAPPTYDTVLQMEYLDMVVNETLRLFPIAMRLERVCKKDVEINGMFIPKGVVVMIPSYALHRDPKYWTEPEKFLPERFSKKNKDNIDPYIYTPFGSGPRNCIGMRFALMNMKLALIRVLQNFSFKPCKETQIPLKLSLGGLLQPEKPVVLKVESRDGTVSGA

Data set [5] concerns CYP3A. The data set is described as follows: Functional imaging of CYP3A4 in mouse liver tissue slices. The settings on record: pre‐incubated 1 h, inhibitor 20 µM.
The target in data set [6] is T1, CYP3A4. The data set is described as follows: in vitro. Particulars: pH 7.4.
In data set [7] the target is hCYP3A4 in HLMs (Homo sapiens, UniProt P08684). Particulars: 1 µM.
Sequence of hCYP3A4 in HLMs (P08684 whole entry): as above
The test system of data set [8] is FMO1, FMO3, FMO5. The data set is described as follows: Oxidative metabolism of NFa in FMOs. The format is in vitro ADME. The settings on record: NFa 20 μM, NADPH, 30 min.
Data set [9] can be described thus: Pharmacokinetics and oral bioavailability of NFa. Particulars: mice. The format is in vivo.
In data set [10] the test system is Hep3B cells. The data set is described as follows: Cell-membrane permeability in Hep3B cells. Particulars: 20 μM, 60 min. The format is cell-based.
Data set [11] deals with T1, CYP3A4. The data set is described as follows: Enzyme kinetic analyses of NFs 4-hydroxylation by hCYP3A4. The format is biochemical. Further details: purchased Cypex.
A short description of data set [12]: In vivo inhibitory effect against CYP3A4 (pharmacokinetics of NFa with inhibitor). Details: species or system C57 mice. Particulars: C57, mouse, plasma, po, 20 mg/kg, mice plasma; for AUC: read-out: AUC(0‐inf).
In data set [13] the test system is panel of human recombinant cytochrome P450 enzymes. The data set is described as follows: P450 reaction phenotyping analysis. Particulars: each recombinant CYP 2.5 nM, 37 °C, 30 min. The format is biochemical.
Data set [14] has as its target T1, CYP3A4. The data set is described as follows: Functional imaging of hCYP3A4 in living cells. The format is cell-based. The settings on record: MCF‐7 and Hep3B cells.
The nature of data set [15]: Safety test of NFa in healthy mice. The settings on record: oral 100 mg kg^−1 per day, 14 consecutive days. The format is in vivo, C57BL/6J mice.
Data set [16] addresses T1, CYP3A4. The data set is described as follows: Fluorescence response of NFa toward hCYP3A4. The format is biochemical. Further details: purchased Cypex.
Data set [17] relates to NCM460 cells. The data set is described as follows: Cell-membrane permeability in NCM460 cells. The format is cell-based. Particulars: 20 μM, 60 min.
Data set [18] addresses T2, P-gp (Homo sapiens, UniProt P08183).
T2 construct: expressed in transfected cells; host or cells: MDR1-MDCK
The data set is described as follows: Identification of the P-gp substrates in living cells (MDR1-MDCK). The format is cell-based. Particulars: with/without verapamil.

For data set [19], the target named is T3, aldehyde oxidase (AO) (Homo sapiens, UniProt Q06278).
T3 construct: The oxidative metabolism of NFa in human liver cytosol (HLC) without NADPH; from tissue; host or cells: human liver cytosol
T3 sequence (Q06278 1-1338): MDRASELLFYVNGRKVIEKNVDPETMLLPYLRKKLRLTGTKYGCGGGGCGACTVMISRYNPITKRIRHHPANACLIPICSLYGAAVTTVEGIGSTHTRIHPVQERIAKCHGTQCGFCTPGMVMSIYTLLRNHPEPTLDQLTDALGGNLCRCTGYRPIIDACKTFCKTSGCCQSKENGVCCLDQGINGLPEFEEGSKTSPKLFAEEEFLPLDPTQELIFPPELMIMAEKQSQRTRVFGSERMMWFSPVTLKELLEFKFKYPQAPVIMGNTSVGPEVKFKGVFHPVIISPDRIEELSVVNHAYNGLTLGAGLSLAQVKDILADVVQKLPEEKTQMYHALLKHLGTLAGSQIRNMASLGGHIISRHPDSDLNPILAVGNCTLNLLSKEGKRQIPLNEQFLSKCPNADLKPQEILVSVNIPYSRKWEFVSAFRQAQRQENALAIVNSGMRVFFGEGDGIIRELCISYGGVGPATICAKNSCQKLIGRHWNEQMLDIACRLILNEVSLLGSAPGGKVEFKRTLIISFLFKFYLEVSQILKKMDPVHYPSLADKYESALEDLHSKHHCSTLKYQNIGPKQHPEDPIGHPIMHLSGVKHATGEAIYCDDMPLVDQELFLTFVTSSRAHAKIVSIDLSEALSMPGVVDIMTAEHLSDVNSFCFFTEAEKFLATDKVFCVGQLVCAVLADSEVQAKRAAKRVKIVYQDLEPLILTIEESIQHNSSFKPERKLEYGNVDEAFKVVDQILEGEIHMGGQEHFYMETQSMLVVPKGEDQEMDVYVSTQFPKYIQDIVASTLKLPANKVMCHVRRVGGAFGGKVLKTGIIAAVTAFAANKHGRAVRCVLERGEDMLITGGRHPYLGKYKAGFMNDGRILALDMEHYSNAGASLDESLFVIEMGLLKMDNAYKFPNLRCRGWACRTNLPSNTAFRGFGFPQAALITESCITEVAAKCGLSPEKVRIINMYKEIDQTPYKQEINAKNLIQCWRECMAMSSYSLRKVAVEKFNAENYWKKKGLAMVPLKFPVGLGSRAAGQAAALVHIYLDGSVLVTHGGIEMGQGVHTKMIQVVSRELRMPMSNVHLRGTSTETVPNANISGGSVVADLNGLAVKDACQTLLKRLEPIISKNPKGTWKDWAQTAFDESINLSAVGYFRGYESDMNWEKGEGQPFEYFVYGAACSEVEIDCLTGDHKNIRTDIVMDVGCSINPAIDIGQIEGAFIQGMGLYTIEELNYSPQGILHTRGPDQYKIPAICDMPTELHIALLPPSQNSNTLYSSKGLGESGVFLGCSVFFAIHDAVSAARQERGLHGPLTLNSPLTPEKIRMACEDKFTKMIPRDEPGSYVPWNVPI
The data set is described as follows: Oxidative metabolism of NFa in AO (human liver cytosol). The format is in vitro ADME. Particulars: NFa 20 μM, human liver cytosol without NADPH, 30 min.

Setting [20] is: mouse, plasma, po, 20 mg/kg, i.g.
Setting [21] is: NFa 20 mg/kg i.g. with D13 50 mg/kg i.g.
The mark [22] stands for this setting: NFa 20 mg/kg i.g. with RTV 50 mg/kg i.g.
Setting [23] is: NFa 20 mg/kg i.g., control group CMC‐Na.

Data on eleven compounds can be found in publication PMC12036557, “Functional Imaging of CYP3A4 at Multiple Dimensions Using an AI‐Driven High Performance Fluorogenic Substrate” (Small (Weinheim an Der Bergstrasse, Germany), 2025).

Like-named read-outs stand apart in the source and are kept apart here.

T2 sequence (P08183 whole entry): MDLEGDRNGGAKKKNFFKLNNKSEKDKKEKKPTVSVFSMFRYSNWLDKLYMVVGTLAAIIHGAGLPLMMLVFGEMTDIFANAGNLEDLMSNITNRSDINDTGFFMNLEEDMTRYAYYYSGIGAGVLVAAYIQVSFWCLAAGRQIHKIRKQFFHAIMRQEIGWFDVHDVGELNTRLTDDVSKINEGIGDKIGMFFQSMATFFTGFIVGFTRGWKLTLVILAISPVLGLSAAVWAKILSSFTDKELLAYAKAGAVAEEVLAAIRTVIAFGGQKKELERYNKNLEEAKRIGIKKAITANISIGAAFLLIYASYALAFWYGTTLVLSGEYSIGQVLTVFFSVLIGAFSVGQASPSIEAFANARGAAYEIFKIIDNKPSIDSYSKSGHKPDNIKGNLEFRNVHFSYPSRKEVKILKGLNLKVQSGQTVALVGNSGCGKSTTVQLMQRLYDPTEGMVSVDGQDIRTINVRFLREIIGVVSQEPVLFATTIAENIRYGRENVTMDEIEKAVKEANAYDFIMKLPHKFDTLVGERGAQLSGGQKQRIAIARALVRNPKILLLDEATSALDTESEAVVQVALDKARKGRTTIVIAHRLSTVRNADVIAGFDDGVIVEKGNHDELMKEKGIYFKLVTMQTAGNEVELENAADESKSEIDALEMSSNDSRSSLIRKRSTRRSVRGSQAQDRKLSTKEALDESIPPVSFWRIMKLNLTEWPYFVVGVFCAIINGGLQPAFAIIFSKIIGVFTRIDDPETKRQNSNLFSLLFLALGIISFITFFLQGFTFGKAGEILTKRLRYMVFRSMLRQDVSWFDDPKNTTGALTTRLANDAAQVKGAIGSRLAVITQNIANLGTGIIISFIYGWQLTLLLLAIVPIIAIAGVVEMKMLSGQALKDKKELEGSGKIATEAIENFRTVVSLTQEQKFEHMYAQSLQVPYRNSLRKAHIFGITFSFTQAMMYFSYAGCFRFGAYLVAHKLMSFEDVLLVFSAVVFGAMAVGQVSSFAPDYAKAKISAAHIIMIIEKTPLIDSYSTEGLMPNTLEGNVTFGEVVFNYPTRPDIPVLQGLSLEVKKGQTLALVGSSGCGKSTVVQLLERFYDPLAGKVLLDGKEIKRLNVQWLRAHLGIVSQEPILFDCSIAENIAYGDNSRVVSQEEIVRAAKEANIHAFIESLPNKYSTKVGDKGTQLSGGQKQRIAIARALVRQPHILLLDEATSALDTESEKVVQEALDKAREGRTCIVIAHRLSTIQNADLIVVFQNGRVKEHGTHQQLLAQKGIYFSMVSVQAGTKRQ

On to `O=C1c2cccc3c(O)ccc(c23)C(=O)N1Cc1cscn1` [4-HNFa, 4-Hydroxyl-N-(4-thiazolemethanamino)-naphtahlimide], for which the cytotoxicity entry in [1] is “weak cytotoxicity”. In [2], the “Fluorescence quantum yield Φf” value worked out at 0.129, the “Molar extinction coefficient ε” value worked out at 25300 M⁻¹ cm⁻¹, the “maximum UV absorption” value is recorded as 450 and the maximum fluorogenic emission turned out to be 555 nm. For the same compound, the “pH range of stable fluorescence signals ≈555 nM” value in data set [2] (2 μM) is recorded as 6.5–12.0. Moreover, the photostability result in data set [2] (continuous illumination at 450 nm) was “good photostability”. Besides, the half-life at 20 μM in data set [3] came to 0.977 h.

`O=c1ccc2ccc(O)cc2o1` [7‐hydroxycoumarin, reference compound]: the half-life at 20 μM in data set [3] amounted to 0.282 h.

Turning to `O=c1ccc2nc3ccc(OCc4ccccc4)cc3oc-2c1` [BzRes, 7-benzyloxyresorufin], in data set [4], the “cell-membrane permeability (Shortages)” value was “low cell-membrane permeability; unavailable in vivo” and the Specificity result is “CYP3A4 non-specific substrate”.

With `O=C(OCc1ccccc1)c1ccccc1-c1c2ccc(=O)cc-2oc2cc(OCc3ccccc3)ccc12` [DBF, dibenzylfluorescein], in data set [4], the Specificity entry is “CYP2C8, CYP3A4, CYP3A5”.

For `CC(=O)N1CCN(c2ccc(OCC3COC(Cn4ccnc4)(c4ccc(Cl)cc4Cl)O3)cc2)CC1` (centres unmarked) [KET, ketoconazole, reference compound], the “effect on NFa green signals in mouse liver slices” value in data set [5] is “significantly blocked”. The activity at 30 min, 1 µM in [6] amounted to 1.91%.

`COc1c(/C=C/C(=O)c2ccc(O)cc2)ccc(O)c1CC=C(C)C` [Licochalcone C] had a Residual activity in data set [7] of 59.04%.

As to `CCN1C(=O)c2cccc3cccc(c23)C1=O` [NEN, N‐ethyl‐1,8‐naphthalimide], in data set [4], the “cell‐membrane permeability” value is recorded as “very poor cell‐membrane permeability”, the “cell-membrane permeability (Shortages)” value is “low cell-membrane permeability; unavailable in vivo” and the Specificity entry is reported as “CYP3A4 specific substrate”.

On to `O=C1c2cccc3cccc(c23)C(=O)N1Cc1cscn1` [NFa, N-(4-Thiazolemethanamino)-naphtahlimide], for which the “participation of FMOs in the oxidative metabolism” value in data set [8] was “did not participate”. For the same compound, the Oral bioavailability in data set [9] (20 mg/kg i.g. vs 2 mg/kg i.v.) was determined as 15.27%. In data set [9] (mouse, plasma, iv, 2 mg/kg), the AUC(0-inf) (usually total exposure, with the tail of the curve extrapolated) turned out to be 439 ± 40.7 ng·h/mL; the Cmax stood at 913 ± 116 ng/mL; the Tmax was 0.083 h; the half-life is 1.24 ± 0.39 h. Further, the bioavailability (as a rule, the share of a dose that reaches the circulation, judged against a reference dose that is usually intravenous) in data set [9] (mouse, plasma, oral, 20 mg/kg, 20 mg/kg i.g. vs 2 mg/kg i.v.) was determined as 15.3%. Besides, in [9] (setting [20]), the area under the curve AUC(0-inf) came out at 670 ± 232 ng·h/mL, the Cmax was determined as 250 ± 90 ng/mL, the Tmax was 1.17 ± 0.41 h and the half-life is 1.55 ± 0.61 h. Moreover, the “enhancement of cell‐membrane permeability versus NEN” value in data set [10] is 5.6 fold. This compound gave a K m in [11] of 13.33 ± 1.01 µM. In addition, in data set [12] (setting [21]), the Cmax is 498 ± 209 ng/mL, the Tmax came out at 0.7 ± 0.27 h, the half-life was 6.37 ± 4.65 h and the AUC worked out at 4630 ± 2230 ng·h/mL. Besides, in data set [12] (setting [22]), the Cmax worked out at 494 ± 131 ng/mL, the Tmax was 0.95 ± 0.67 h, the half-life is 8.09 ± 7.52 h and the AUC amounted to 5800 ± 5000 ng·h/mL. Also, in [12] (setting [23]), the Cmax is 210 ± 125 ng/mL, the Tmax was 1.25 ± 0.61 h, the half-life is 2.22 ± 0.94 h and the AUC came to 642 ± 146 ng·h/mL. The “isoform specificity as P450 substrate” value in data set [13] is listed as “highly specific substrates for hCYP3A4”. Also, the “Pearson's coefficient of co‐localization with ER‐Tracker Red” value in data set [14] is 0.99. For the same compound, in data set [15], the “biochemical assays and H&E staining findings” value is reported as “no haematotoxicity, organ injuries, or apparent abnormalities”; the body weight entry is given as “gradual increase”; the mortality entry is “no mortality”. Further, the cytotoxicity result in data set [1] was “weak cytotoxicity”. Moreover, in data set [16], the “limit of detection for sensing hCYP3A4” value is reported as 0.047 nM. For the same compound, the “interference from endogenous fatty acids, amino acids, and cations on NFa 4‐hydroxylation by hCYP3A4” value in [16] (NFa 10 μM, 37 ℃, 30 min) is “no interference”. Moreover, the “enhancement in fluorescence emission ≈555 nM” value in data set [16] (NFa 10 µM, hCYP3A4 10 nM, 37 °C, 30 min, λex 450) was 154 fold. Moreover, the “enhancement of cell‐membrane permeability versus NEN” value in data set [17] is on record as 28 fold. The “P‐gp substrate status” value in data set [18] is recorded as “non‐substrate for P‐gp”. Further, in data set [2], the “Molar extinction coefficient ε” value worked out at 44300 M⁻¹ cm⁻¹, the “maximum UV absorption” value came to 340 and the maximum fluorogenic emission was 390 nm. Moreover, the “participation of AO in the oxidative metabolism” value in [19] is “did not participate”.

Turning to `Cc1nc(CN2C(=O)c3cccc4cccc(c34)C2=O)cs1` [NFb, N-(2-Methyl-4-thiazolemethanamino)-naphtahlimide], in [11], the “CL int (V max/K m)” value was found to be 558 µL min^−1/nmol hCYP3A4 and the K m is on record as 7.51 ± 0.49 µM. In addition, in data set [13], the “isoform specificity as P450 substrate” value is “highly specific substrates for hCYP3A4”.

Consider `CC(C)c1nc(CN2C(=O)c3cccc4cccc(c34)C2=O)cs1` [NFd, N-(2-Isopropyl-4-thiazolemethanamino)-naphtahlimide], for which, in data set [11], the “CL int (V max/K m)” value came out at 504 µL min^−1/nmol hCYP3A4 and the K m was determined as 4.17 ± 0.21 µM. In data set [13], the “isoform specificity as P450 substrate” value is “highly specific substrates for hCYP3A4”.

In data set [7], Sanggenone C had a Residual activity of 92.64%.
